# Measurements from ChEMBL document CHEMBL5131516, “The Ascension of Targeted Covalent Inhibitors” (J Med Chem, 2022).
# pEC50, pIC50: −log10 of the molar value.
# Tests used:
# [1] = Inhibition of wild-type EGFR phosphorylation in human NCI-H1819 cells; format: cell-based
# [2] = biological target: T1, Tyrosine-protein kinase Tec (Homo sapiens, UniProt P42680)
# T1 sequence (P42680 whole entry): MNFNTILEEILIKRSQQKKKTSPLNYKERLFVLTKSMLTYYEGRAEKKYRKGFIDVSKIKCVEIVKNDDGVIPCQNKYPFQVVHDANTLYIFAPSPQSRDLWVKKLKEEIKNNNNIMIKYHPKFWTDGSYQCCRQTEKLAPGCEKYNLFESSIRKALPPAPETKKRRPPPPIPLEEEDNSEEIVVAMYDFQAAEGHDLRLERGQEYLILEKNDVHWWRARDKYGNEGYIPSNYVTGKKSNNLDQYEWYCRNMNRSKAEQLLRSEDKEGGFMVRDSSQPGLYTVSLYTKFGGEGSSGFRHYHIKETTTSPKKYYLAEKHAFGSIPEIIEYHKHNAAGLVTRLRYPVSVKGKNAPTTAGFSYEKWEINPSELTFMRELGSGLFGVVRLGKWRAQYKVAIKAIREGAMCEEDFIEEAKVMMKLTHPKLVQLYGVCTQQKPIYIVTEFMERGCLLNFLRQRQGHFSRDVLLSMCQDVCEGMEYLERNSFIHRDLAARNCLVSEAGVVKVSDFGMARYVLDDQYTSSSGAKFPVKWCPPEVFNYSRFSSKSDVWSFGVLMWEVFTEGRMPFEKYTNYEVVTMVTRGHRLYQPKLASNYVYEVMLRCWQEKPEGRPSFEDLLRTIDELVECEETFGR
# Description: Inhibition of TEC (unknown origin)
pEC50 [1],pIC50 [2],Structure (SMILES)
7.54,–,COc1cc2ncnc(Nc3ccc(F)c(Cl)c3)c2cc1NC(=O)/C=C/CN1CCCCC1 [DACOMITINIB ANHYDROUS]
–,7.36,C=CC(=O)N1CCC([C@@H]2CCNc3c(C(N)=O)c(-c4ccc(Oc5ccccc5)cc4)nn32)CC1 [ZANUBRUTINIB]
